Laboratory results reported in US10239887B2, “Positive allosteric modulators of the muscarinic acetylcholine receptor M4” (Vanderbilt University, priority 2016, dated 2019).
Structures can show the parent of a compound that is named as a salt. Where two headings read alike, the source gives them in different places.

Biological target: T1, human mAChR M4 (Homo sapiens, UniProt P08173)
T1 sequence (P08173 1-479): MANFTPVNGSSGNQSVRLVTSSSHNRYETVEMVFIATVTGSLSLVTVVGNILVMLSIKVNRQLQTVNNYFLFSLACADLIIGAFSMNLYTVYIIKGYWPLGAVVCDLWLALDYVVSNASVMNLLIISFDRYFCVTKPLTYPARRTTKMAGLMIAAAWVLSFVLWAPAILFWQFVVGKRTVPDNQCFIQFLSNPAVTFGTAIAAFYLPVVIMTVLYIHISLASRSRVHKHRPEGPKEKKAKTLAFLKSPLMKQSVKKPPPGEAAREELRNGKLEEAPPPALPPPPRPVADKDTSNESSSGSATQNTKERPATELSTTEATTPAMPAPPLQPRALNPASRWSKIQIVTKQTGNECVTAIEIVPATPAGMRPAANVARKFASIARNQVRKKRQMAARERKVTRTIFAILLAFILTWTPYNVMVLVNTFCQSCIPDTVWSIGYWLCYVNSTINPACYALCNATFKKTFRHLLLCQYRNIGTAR
Assay: mAChR M4 cell-based functional assay (calcium flux), human M4
Details: for Emax: % ACh maximum at 30 μM

[1] = Human M4 EC50, CHO-K1 hM4-Gqi5 cells, calcium flux, increase in EC20 acetylcholine response
[2] = Human M4 EC50 (nM), Table 10, calcium flux, PAM activity with EC20 acetylcholine

Row | EC50 [2] [nM] | Emax (Table 10) [%] | Compound | further results
1 |  |  | Cc1nnc2oc3c(NC4CC5(COC5)C4)ncnc3c2c1C [Compound 71, 3,4-dimethyl-N-(2-oxaspiro[3.3]heptan-6-yl)pyrimido[4′,5′:4,5] furo[2,3-c]pyridazin-8-amine] | Emax (Human M4): 37.2%; EC50 [1]: > 10000 nM
2 |  |  | Cc1nnc2oc3c(NC4CC(F)(F)C4)ncnc3c2c1C [Compound 72, N-(3,3-difluorocyclobutyl)-3,4-dimethyl-pyrimido [4′,5′:4,5]furo[2,3-c]pyridazin-8-amine] | Emax (Human M4): 57.9%; EC50 [1]: 1750 nM
3 |  |  | Cc1nnc2oc3c(N4CC5(COC5)C4)ncnc3c2c1C [Compound 73, 3,4-dimethyl-8-(2-oxa-6-azaspiro[3.3]heptan-6-yl)pyrimido[4′,5′:4,5]furo [2,3-c]pyridazine] | Emax (Human M4): 46.1%; EC50 [1]: 4840 nM
4 |  |  | Cc1nnc2oc3c(NCc4ccc(C(C)(C)O)nc4)ncnc3c2c1C [Compound 74, 2-[5-[[(3,4-dimethylpyrimido [4′,5′:4,5]furo[2,3-c]pyridazin-8-yl)amino]methyl]-2-pyridyl]propan-2-ol] | Emax (Human M4): 59.5%; EC50 [1]: 9160 nM
5 |  |  | COc1ccc(CNc2ncnc3c2oc2nnc(C)c(C)c23)cc1F [Compound 75, N-[(3-fluoro-4-methoxy-phenyl)methyl]-3,4-dimethyl-pyrimido[4′,5′:4,5]furo[2,3-c]pyridazin-8-amine] | Emax (Human M4): 36.4%
6 | 200 | 86 | COc1ccc(C2CC2Nc2ncnc3c2sc2nnc(C)c(C)c23)cc1 (stereo not drawn) [Compound 77, N-(2-(4-methoxyphenyl)cyclopropyl)-3,4-dimethylpyrimido [4′,5′:4,5]thieno[2,3-c] pyridazin-8-amine] | 
7 |  | 71.6 | COc1ccc(CNc2ncnc3c2sc2nnc(C)c(C)c23)cc1F [Compound 78, N-(3-fluoro-4-methoxybenzyl)-3,4-dimethylpyrimido [4′,5′:4,5]thieno[2,3-c] pyridazin-8-amine] | 
8 | 773 | 95.2 | Cc1nnc2sc3c(NCc4ccc(-c5cccnc5F)cc4)ncnc3c2c1C [Compound 79, N-(4-(2-fluoropyridin-3-yl)benzyl)-3,4-dimethylpyrimido [4′,5′:4,5]thieno[2,3-c] pyridazin-8-amine] | 
9 |  | 62.1 | Cc1nnc2sc3c(N4CC(C)(O)C4)ncnc3c2c1C [Compound 80, 1-(3,4-dimethylpyrimido [4′,5′:4,5]thieno[2,3-c]pyridazin-8-yl)-3-methyl-azetidin-3-ol] | 
10 | 3120 | 62.6 | Cc1nnc2sc3c(NC4CCN(c5cccc(F)c5F)C4)ncnc3c2c1C (stereo not drawn) [Compound 81, N-[1-(2,3-difluorophenyl)pyrrolidin-3-yl]-3,4-dimethyl-pyrimido [4′,5′:4,5]thieno[2,3-c] pyridazin-8-amine] | 
11 |  | 50.1 | Cc1nnc2sc3c(NC4CN(c5ncc(C6CC6)cc5Cl)C4)ncnc3c2c1C [Compound 82, N-[1-(3-chloro-5-cyclopropyl-2-pyridyl)azetidin-3-yl]-3,4-dimethyl-pyrimido [4′,5′:4,5]thieno[2,3-c] pyridazin-8-amine] | EC50 (Human M4 EC50 (nM), Table 10, unit μM (bounds)): > 10000 nM
12 | 288 | 59.7 | Cc1nc(C2CC2)ccc1N1CC(Nc2ncnc3c2sc2nnc(C)c(C)c23)C1 [Compound 83, N-[1-(6-cyclopropyl-2-methyl-3-pyridyl)azetidin-3-yl]-3,4-dimethyl-pyrimido [4′,5′:4,5]thieno[2,3-c] pyridazin-8-amine] | 
13 |  | 74.3 | Cc1nnc2sc3c(NC4CN(c5cc(Cl)ncc5Cl)C4)ncnc3c2c1C [Compound 85, N-[1-(2,5-dichloro-4-pyridyl)azetidin-3-yl]-3,4-dimethyl-pyrimido [4′,5′:4,5]thieno[2,3-c] pyridazin-8-amine] | 
14 | 60.4 | 69 | Cc1nnc2sc3c(NC4CN(c5cnc(C6CC6)cn5)C4)ncnc3c2c1C [Compound 86, N-[1-(5-cyclopropylpyrazin-2-yl)azetidin-3-yl]-3,4-dimethyl-pyrimido [4′,5′:4,5]thieno[2,3-c] pyridazin-8-amine] | 
15 | 139 | 70.5 | Cc1nnc2sc3c(NC4CN(C(=O)OC(C)(C)C)C4)ncnc3c2c1C [Compound 87, tert-butyl 3-[(3,4-dimethylpyrimido [4′,5′:4,5]thieno[2,3-c]pyridazin-8-yl)amino] azetidine-1-carboxylate] | 
16 | 1190 | 73.7 | Cc1nnc2sc3c(NC4CNC4)ncnc3c2c1C [Compound 88, N-(azetidin-3-yl)-3,4-dimethyl-pyrimido [4′,5′:4,5]thieno[2,3-c] pyridazin-8-amine dihydrochloride] | 

Row | EC50 [2] [nM] | Emax (Table 10) [%] | Compound | further results
17 | 75.2 | 57.8 | Cc1nnc2sc3c(NC4CN(c5ncc(OC(C)C)cn5)C4)ncnc3c2c1C [Compound 89, N-[1-(5-isopropoxypyrimidin-2-yl)azetidin-3-yl]-3,4-dimethyl-pyrimido [4′,5′:4,5]thieno[2,3-c] pyridazin-8-amine] | 
18 | 277 | 76.7 | Cc1nnc2sc3c(NCc4ccc(OC(F)F)nc4)ncnc3c2c1C [Compound 90, N-[[6-(difluoromethoxy)-3-pyridyl]methyl]-3,4-dimethyl-pyrimido [4′,5′:4,5]thieno[2,3-c] pyridazin-8-amine] | 
19 | 3130 | 61.8 | Cc1nnc2sc3c(NCc4ccc(OCC5CC5)c(F)c4)ncnc3c2c1C [Compound 91, N-[[4-(cyclopropylmethoxy)-3-fluoro-phenyl]methyl]-3,4-dimethyl-pyrimido [4′,5′:4,5]thieno[2,3-c] pyridazin-8-amine] | 
20 | 5270 | 67.3 | Cc1nnc2sc3c(NCc4ccc(S(F)(F)(F)(F)F)cc4)ncnc3c2c1C [Compound 92, 3,4-dimethyl-N-[[4-(pentafluoro-λ6-sulfanyl)phenyl]methyl]pyrimido [4′,5′:4,5]thieno[2,3-c] pyridazin-8-amine] | 
21 | 192 | 61.3 | Cc1nnc2sc3c(NCc4ccc(S(C)(=O)=O)cc4)ncnc3c2c1C [Compound 93, 3,4-dimethyl-N-[(4-methylsulfonylphenyl)methyl] pyrimido[4′,5′:4,5]thieno [2,3-c]pyridazin-8-amine] | 
22 | 639 | 79.7 | COc1ccc(CNc2ncnc3c2sc2nnc(C)c(C)c23)cc1OC [Compound 94, N-[(3,4-dimethoxyphenyl)methyl]-3,4-dimethyl-pyrimido[4′,5′:4,5]thieno [2,3-c]pyridazin-8-amine] | 
23 | 395 | 61.4 | Cc1nnc2sc3c(N4CC(N)C4)ncnc3c2c1C [Compound 95, 1-(3,4-dimethylpyrimido [4′,5′:4,5]thieno[2,3-c]pyridazin-8-yl) azetidin-3-amine] | 
24 | 830 | 60.3 | CC(=O)NC1CN(c2ncnc3c2sc2nnc(C)c(C)c23)C1 [Compound 96, N-[1-(3,4-dimethylpyrimido [4′,5′:4,5]thieno[2,3-c]pyridazin-8-yl)azetidin-3-yl]acetamide] | 
25 | 1130 | 51.7 | Cc1nnc2sc3c(N4CC(NC(=O)c5ccncc5)C4)ncnc3c2c1C [Compound 97, N-[1-(3,4-dimethylpyrimido [4′,5′:4,5]thieno[2,3-c]pyridazin-8-yl)azetidin-3-yl]pyridine-4-carboxamide hydrochloride] | 
26 | 2390 | 50.1 | Cc1nnc2sc3c(N4CC(C)(N)C4)ncnc3c2c1C [Compound 98, 1-(3,4-dimethylpyrimido [4′,5′:4,5]thieno[2,3-c]pyridazin-8-yl)-3-methyl-azetidin-3-amine dihydrochloride] | 
27 | 1040 | 54 | Cc1nnc2sc3c(N4CC[C@@H](N)C4)ncnc3c2c1C [Compound 99, (3R)-1-(3,4-dimethylpyrimido [4′,5′:4,5]thieno[2,3-c]pyridazin-8-yl)pyrrolidin-3-amine dihydrochloride] | 
28 | 7720 | 52.2 | Cc1nnc2sc3c(NC(C)c4ccc(C(C)(C)O)cc4)ncnc3c2c1C (stereo not drawn) [Compound 100, 2-[4-[1-[(3,4-dimethylpyrimido [4′,5′:4,5]thieno[2,3-c]pyridazin-8-yl)amino]ethyl]phenyl]propan-2-ol] | 
29 | 839 | 59.2 | Cc1nnc2sc3c(NC(C)c4ccc(C5(O)CCC5)cc4)ncnc3c2c1C (stereo not drawn) [Compound 101, 1-[4-[1-[(3,4-dimethylpyrimido [4′,5′:4,5]thieno[2,3-c]pyridazin-8-yl)amino]ethyl]phenyl]cyclobutanol] | 
30 | 135 | 53.3 | Cc1nnc2sc3c(NCc4cccc(C5(O)CCC5)c4)ncnc3c2c1C [Compound 102, 1-[3-[[(3,4-dimethylpyrimido [4′,5′:4,5]thieno[2,3-c]pyridazin-8-yl)amino]methyl]phenyl] cyclobutanol] | 
31 | 122 | 80.3 | Cc1nnc2sc3c(N4CC(O)(C5CC5)C4)ncnc3c2c1C [Compound 103, 3-cyclopropyl-1-(3,4-dimethylpyrimido [4′,5′:4,5]thieno[2,3-c]pyridazin-8-yl)azetidin-3-ol] | 

Row | Compound | EC50 [2] [nM] | Emax (Table 10) [%] | further results
32 | Cc1nnc2sc3c(NC4CN(c5ncc(F)cn5)C4)ncnc3c2c1C [Compound 84, N-[1-(5-fluoropyrimidin-2-yl)azetidin-3-yl]-3,4-dimethyl-pyrimido [4′,5′:4,5]thieno[2,3-c] pyridazin-8-amine] |  | 64.9 | EC50: 27.6 nM
